Source: ChEMBL document CHEMBL3872286, “Identification and Mechanistic Evaluation of Hemozoin-Inhibiting Triarylimidazoles Active against Plasmodium falciparum” (ACS Med Chem Lett, 2017)
Active and inactive are the calls of the source. The calls are words filed in the database; no cut-off is given here.

Experiments:
[1] = system: Plasmodium falciparum; test: Antimalarial activity against chloroquine-sensitive asexual erythrocyte stage of Plasmodium falciparum D6 infected in human type O+ erythrocytes assessed as growth inhibition incubated for 48 hrs by NBT dye based LDH release assay; type: functional, cell-based; conditions: D6, 48 h
[2] = Inhibition of beta-hematin formation incubated for 5 to 6 hrs by NP40 detergent-mediated assay
[3] = system: Plasmodium falciparum; test: Antimalarial activity against chloroquine-sensitive asexual erythrocyte stage of Plasmodium falciparum NF54 infected in human type O+ erythrocytes assessed as growth inhibition incubated for 48 hrs by NBT dye based LDH release assay; type: functional, cell-based; conditions: NF54, 48 h
[4] = Selectivity index, ratio of cytotoxic activity against CHO cells to IC50 for Plasmodium falciparum infected in human type O+ erythrocytes; type: toxicity, cell-based; conditions: hamster, read-out: Selectivity Index
[5] = system: Plasmodium falciparum; test: Antimalarial activity against chloroquine-sensitive asexual erythrocyte stage of Plasmodium falciparum NF54 infected in human type O+ erythrocytes assessed as decrease in DNA level by flow cytometry; type: functional, cell-based
[6] = Cytotoxicity against CHO cells assessed as decrease in cell viability by MTT assay; type: toxicity, cell-based, Cricetulus griseus; conditions: chinese hamster
[7] = system: Plasmodium falciparum; test: Antimalarial activity against chloroquine-sensitive asexual erythrocyte stage of Plasmodium falciparum NF54 infected in human type O+ erythrocytes assessed as pyknosis at 3 times IC50 by light microscopy; type: functional, cell-based
[8] = system: Plasmodium falciparum; test: Antimalarial activity against chloroquine-sensitive asexual erythrocyte stage of Plasmodium falciparum NF54 infected in human type O+ erythrocytes assessed as smaller and less complex DNA by flow cytometry; type: functional, cell-based
[9] = system: Plasmodium falciparum; test: Inhibition of beta-hematin formation in human erythrocytes infected with chloroquine-sensitive Plasmodium falciparum D6 assessed as increase in intracellular free heme level by SYBR Green I fluorescence assay; parameters: scale not given: the % may be the effect or the level left
[10] = Resistance index, ratio of IC50 for chloroquine-resistant asexual erythrocyte stage of Plasmodium falciparum K1 infected in human type O+ erythrocytes to IC50 for chloroquine-sensitive asexual erythrocyte stage of Plasmodium falciparum NF54 infected in human type O+ erythrocytes; type: functional
[11] = system: Plasmodium falciparum; test: Antimalarial activity against chloroquine-resistant asexual erythrocyte stage of Plasmodium falciparum K1 infected in human type O+ erythrocytes assessed as growth inhibition incubated for 48 hrs by NBT dye based LDH release assay; type: functional, cell-based; conditions: K1, 48 h
[12] = system: Plasmodium falciparum; test: Antimalarial activity against chloroquine-sensitive Plasmodium falciparum D6 infected in human erythrocytes assessed as inhibition of beta-hematin formation by measuring increase in intracellular free heme level at 2.5 times IC50; type: functional, cell-based; parameters: scale not given: the % may be the effect or the level left
[13] = system: Plasmodium falciparum; test: Antimalarial activity against chloroquine-sensitive Plasmodium falciparum D6 infected in human erythrocytes assessed as inhibition of beta-hematin formation by measuring increase in intracellular free heme level; type: functional, cell-based
[14] = system: Plasmodium falciparum; test: Antimalarial activity against chloroquine-resistant asexual erythrocyte stage of Plasmodium falciparum K1 infected in human type O+ erythrocytes assessed as growth inhibition incubated for 72 hrs by NBT dye based LDH release assay; type: functional, cell-based; conditions: K1, 72 h

SMILES | IC50 [1] [µM] | IC50 [2] [µM] | IC50 [3] [µM] | further results
CCOc1cc(-c2nc(-c3ccc(F)cc3)c(-c3ccc(F)cc3)[nH]2)ccc1O | 2.4 | 18.7 | – | –
COc1cc(-c2nc(-c3ccccc3)c(-c3ccc(Br)cc3)[nH]2)cc(OC)c1O | 0.31 | 12.6 | – | –
COc1cc(-c2nc(-c3ccccc3)c(-c3ccccc3)[nH]2)cc(OC)c1OC | – | 10.9 | 3 | –
FC(F)(F)Oc1ccc(-c2nc(-c3ccccc3)c(-c3ccccc3)[nH]2)cc1 | – | > 1000 | 4.2 | selectivity ratio [4]: 6.9; Activity [5]: Active; Activity [6]: 29 µM; Activity [7]: Active; Activity [8]: Active
Oc1ccc(-c2nc(-c3ccccc3)c(-c3ccc(Br)cc3)[nH]2)cc1 | 9.06 | 5.6 | – | Activity [9]: 43%
c1ccc(-c2nc(-c3ccncc3)[nH]c2-c2ccccc2)cc1 | 10.8 | 25.4 | – | –
COc1ccc(-c2nc(-c3cc(OC)cc(OC)c3)[nH]c2-c2ccc(OC)cc2)cc1 | – | 13.8 | 1.7 | selectivity ratio [4]: > 141; Activity [6]: > 240 µM; Ratio IC50 [10]: 1.1; IC50 [11]: 1.8 µM; Activity [12]: > 50%; Activity [13]: Dose dependent effect
Oc1ccc(-c2nc(-c3ccccc3)c(-c3ccccc3)[nH]2)cc1 | – | 17.7 | > 32 | –
O=[N+]([O-])c1ccc(-c2nc(-c3ccccc3)c(-c3ccccc3)[nH]2)cc1 | – | 19 | 15 | selectivity ratio [4]: 7.8; Activity [6]: 149 µM; Activity [13]: > 20 fg
Brc1ccc2[nH]cc(-c3nc(-c4ccccc4)c(-c4ccccc4)[nH]3)c2c1 | 2.24 | 12.7 | – | –
c1ccc(-c2nc(-c3ccccc3)c(-c3ccccc3)[nH]2)cc1 | > 20 | > 1000 | – | –
c1ccc(-c2ncc[nH]2)cc1 [2-PHENYLIMIDAZOLE] | – | > 1000 | – | –
COc1cc(-c2nc(-c3ccc4c(c3)S(=O)(=O)c3ccccc3-4)c(-c3ccccc3)[nH]2)cc(OC)c1O | 0.61 | 6.2 | – | –
COc1cc(OC)cc(-c2nc(-c3ccccc3)c(-c3ccc(Cl)cc3)[nH]2)c1 | – | 16.6 | 1.7 | Ratio IC50 [10]: 1.6; IC50 [11]: 2.7 µM
COc1cc(-c2nc(-c3ccccc3)c(-c3ccccc3)[nH]2)cc(OC)c1O | – | 10.2 | 1.3 | Ratio IC50 [10]: 1.5; IC50 [11]: 1.9 µM
COc1cc(OC)c(-c2nc(-c3ccsc3)c(-c3ccccc3)[nH]2)cc1OC | 11.7 | 10 | – | –
COc1cc(-c2nc(-c3ccccc3)c(-c3ccc(O)cc3)[nH]2)cc(OC)c1O | 0.7 | 2.4 | – | –
CCN(CC)CCCC(C)Nc1ccnc2cc(Cl)ccc12 (stereo not given) [CHLOROQUINE] | – | 315 | – | –
Oc1ccc(-c2ncc[nH]2)cc1 | – | 347 | > 20 | –
COc1cc(OC)cc(-c2nc(-c3ccccc3)c(-c3ccccc3)[nH]2)c1 | – | 14.6 | 7 | selectivity ratio [4]: > 206; Activity [6]: > 269 µM; Ratio IC50 [10]: 0.7; Activity [12]: > 50%; IC50 [14]: 4.7 µM; Activity [13]: Dose dependent effect
Nc1ccc(-c2nc(-c3ccccc3)c(-c3ccccc3)[nH]2)cc1 | – | 16.1 | 42 | –
